{"source": "patent US6875766B2", "about": "“Use of riboflavin and flavin derivatives as chitinase inhibitors” (Bayer AG, priority 2000, dated 2005)", "key": {"[1]": {"tested_on": "Streptomyces griseus chitinase (Sigma)", "assay": "Chitinase inhibitory activity against Streptomyces griseus chitinase", "assay_type": "biochemical", "conditions": "at 100 μM (37° C.)", "experimental": "(§1) The chitinase inhibitory activity was determined as already described [Omura, S., Arai, N., Yamaguchi, Y., Masuma, R., Iwai, Y., Namikoshi, M., Turberg, A., Kölbl, H., Shiomi, K., J. Antibiot., 53, 603-608 (2000)]."}, "[2]": {"tested_on": "Periplaneta americana, third instar", "assay": "Injection test with Periplaneta larvae", "assay_type": "in vivo", "conditions": "2 μg injected per larva; observed over 23 days", "experimental": "Injection test with Periplaneta larvae\nTest animals: Periplaneta americana, third instar\nThe compounds are prepared in aqueous solution (0.1 N acetic acid) and diluted as required. Using a 10 μl Hamilton syringe, 1 μl of the 20 or 2 μg were injected behind the 3rd pair of legs closely underneath the abdominal cavity of the cockroach larvae. Solvent (0.1 N acetic acid) was applied as control and 10 μg allosamidine as positive control. Batches of twenty cockroach larvae were treated per concentration and compound. On day 1, the control mortality and the initial mortality caused essentially by artificial effects during the injection were determined. If this initial mortality was less than 50%, the experiment was continued. The cockroach larvae were placed on filter paper in standard Petri dishes (9.5 cm Ø), and a quarter of a wafer was added. The ecdysis rate of the control animals and of the treated cockroach larvae was observed over a period of 23 days, and larval mortality and inhibition of ecdysis were recorded after days 1, 5 and 23. The efficacy is calculated using the following formula. [formula]"}, "[3]": {"biological_target": "Lucilia cuprina chitinase", "assay": "Chitinase inhibitory activity (IC50) against Lucilia cuprina chitinase", "assay_type": "biochemical", "experimental": "as §1"}, "[4]": {"tested_on": "Lucilia cuprina endochitinase", "assay": "Chitinase test with soluble extracts from Lucilia cuprina puppae", "assay_type": "biochemical", "conditions": "cytosolic extract of late pupae, MUF-triacetylchitotriose substrate", "experimental": "Chitinase test with soluble extracts from Lucilia cuprina puppae\nTest animals: Cytosol of Lucilia cuprina\nThe substances, which are dissolved in DMSO, are provided on 384-well microtiter plates in a concentration of 2 mM, the first four columns being empty. The substances are diluted 1:40 with 100 mM NPP pH 7.0 (50 μM). 5 μl of each of these dilutions are transferred to a 384-well test plate, starting with column 5. Into the first two columns there are pipetted in each case as negative control, into the third and fourth column in each case 5 μl of 5×10^-6 M allosamidin in 2.5% DMSO in 100 mM NPP pH 7.0 5 μl 2.5% DMSO in 100 mM NPP pH 7.0 as positive control.\nThe substances are incubated for 20 minutes at room temperature with 2.5 μg of cytosolic extract of late Lucilia cuprina puppae in 10 μl of 100 mM sodium phosphate buffer pH 7.0 and 10 μl of 100 μM methylumbelliferyl (MUF-triacetylchitotriose). The reaction is quenched by addition of 25 μl of 0.5 M glycine buffer 2 M sodium hydroxide, pH 10.4. The inhibition is determined by measuring the relative fluorescence at an excitation of 360±40 nm and an emission of 460±40 nm. The test substances are evaluated in comparison with the inhibition of the enzyme by allosamidin. The inhibition of the release of MUF is a measure for the efficacy of the inhibitor. In subsequent tests, concentration series in the range of from 100 nM to 200 μM are tested, and the release of MUF is measured every 2 minutes before the reaction is quenched.\nCompounds which lead to more than 50% inhibition of chitinase at maximum reaction velocity at 100 μM are assessed as effective."}, "[5]": {"tested_on": "Vibrio alginolyticus chitinase (Kyowa Medex)", "assay": "Chitinase inhibitory activity against Vibrio alginolyticus chitinase", "assay_type": "biochemical", "conditions": "at 100 μM (37° C.)", "experimental": "as §1"}}, "data": [{"molecule": "Cc1cc2nc3c(=O)[nH]c(=O)nc-3n(C[C@H](O)[C@H](O)[C@H](O)CO)c2cc1C", "note": "[compound 1, riboflavin]", "values": [{"measurement": "inhibition of the Streptomyces griseus chitinase", "setting": "[1]", "value": "no inhibition"}, {"measurement": "mortality against Periplaneta americana third instars", "setting": "[2]", "value": "More than 50%"}, {"measurement": "IC50", "setting": "[3]; 20° C.", "value": 380, "unit": "nM"}, {"measurement": "IC50", "setting": "[3]; 37° C.", "value": 2100, "unit": "nM"}, {"measurement": "inhibition of the Lucilia cuprina endochitinase", "setting": "[4]; 10 μM", "value": ">>50%"}, {"measurement": "inhibition of the Lucilia cuprina endochitinase", "setting": "[4]; 100 μM", "value": ">>50%"}, {"measurement": "inhibition of the Lucilia cuprina endochitinase", "setting": "[4]; 200 μM", "value": ">>>50%"}, {"measurement": "inhibition of the Vibrio alginolyticus chitinase", "setting": "[5]", "value": "no inhibition"}]}]}
